The values below come from US20220160680A1, “MICROORGANISM MIXTURES, MOLECULES DERIVED THEREFROM, AND METHODS OF USE THEREOF” (B. G. Negev Technologies and Applications Ltd., at …, priority 2018, published 2022).

One test has as its system P. aeruginosa (PA01). Briefly: Static biofilm assay (CLSM). Type of test: cell-based, Pseudomonas aeruginosa. The note with it: 20 μM. The method, then:
(§1) For static biofilm assay, overnight cultures of P. aeruginosa (PA01), Salmonella and Staphylococcus aureus strains were diluted 1:10 in fresh LB medium containing a final concentration of synthesized molecule (203) of 20 or 50 μM, or DMSO (up to 1%) as control. Biofilms were grown under non-shaking conditions at 37° C. in 96-well plate (Thermo Scientific, Rochester, N.Y., USA). […] The stained cells were washed twice with PBS. Biofilm images were taken by CLSM (Plan-Apochromat 20×/0.8 M27, Zeiss LSM880, Germany).
(§2) P. aeruginosa PA01, Salmonella and Staphylococcus aureus strains were incubated for 24 hr at 37° C. The bacterial suspension was diluted 1:10 with fresh LB and incubated for 3 h with the kefir biomass crude extract molecules or with DMSO as a control (refreshment sample). In all cultures, DMSO concentration was up to 1% (v/v). 200 μl of the broth medium mix with yogurt extract or with DMSO as control were placed in each well of a 96-well plate (Thermo Scientific, Rochester, N.Y., USA). 2 μl refreshment samples were added to each suitable well. The plate incubated for 24 hr at 37° C. After the incubation the samples washed three times with PBS. For visualizing of viable cells, the bacteria were stained green and dead cells stained red using the BacLight® Dead/Live Kit (Invitrogen, Eugene, Oreg., USA). The stained cells were washed twice with PBS. […]

In test [1] the test system is P. aeruginosa (PA01), Salmonella and Staphylococcus aureus strains. The experiment in a line: Bacterial cell growth/viability (BacLight Dead/Live). Type of test: cell-based. The protocol:
as §1, §2

In another test the test system is Peritoneal macrophages. Briefly: In vitro LPS stimulation of peritoneal macrophages, cytokine ELISA (24 hr). It is filed as cell-based, mice. The note with it: 100 μM, 0.1 μg/ml LPS. The method, then: Peritoneal macrophages were harvested using the protocol as described previously (Zhang et al., 2008). Elicited macrophages were harvested from WT mice which had received a 2.5 ml intraperitoneal administration of 3% Brewer thioglycolate broth (Sigma, UK) 72 hr prior collection.
Peritoneal macrophages cells (5×10^5/ml) were cultured with 0.1 μg/ml Lipopolysaccharides (LPS-Escherichia coli serotype 0127:B8, Sigma-Aldrich) and in the presence of 100 μM: tryptophol acetate, tyrosol acetate, dopamine HCl, caffeic acid, or combination of tryptophol acetate and tyrosol acetate, for 24 hr. Following culture, supernatants were collected and stored at −20° C. for the detection of the IL-6 cytokine. For IL-la detection, the inventors induced macrophages lysis by adding fresh RPMI medium and thawing three times.
IL-la and IL-6 levels were measured in peritoneal exudate fluids and LPS-stimulated culture supernatants by ELISA. To detect the cytokines, a R&D ELISA kit (Catalog #MLA00 and DY406, respectively) was used as per the manufacturer's instructions. A standard curve was constructed using serial dilutions of purified IL-la or IL-6 starting at a concentration of 15 ng/ml.
(In general: An ELISA detects its analyte on a solid surface through an enzyme-linked reagent.)

The test system of the next test is Salmonella. The experiment in a line: Static biofilm assay (CLSM). It is filed as cell-based, Salmonella enteritidis. To be noted: 50 μM. The method, then:
as §1, §2

Test [2] addresses T1, amyloid beta (αβ1-42) (Homo sapiens, UniProt P05067).
T1 construct: samples containing 30 μM amyloid beta [4(1-42)] in the absence or presence of tryptophol acetate
Briefly: Thioflavin T (ThT) assay. It is filed as biochemical. To be noted: 30 μM amyloid beta, 12 hours of incubation. The protocol: ThT fluorescence measurements were taken at 37° C. using 96-well black plate on a Biotek Synergy H1 plate reader. Measurements were made on a samples containing 30 μM amyloid beta [4(1-42)] in the absence or presence of tryptophol acetate in different concentrations. A 120-μL aliquot of the aggregation reaction was mixed with 10 μM ThT in phosphate buffer (pH 7.4). The fluorescence intensity was measured every 30 min for 24 hr at λ excitation (λex)=440 and λ emission (λem)=485 nm.

In the next test the test system is Vibrio cholerae MM920. Briefly: Quorum sensing bioluminescence reporter assay. It is filed as cell-based. To be noted: for IC50: Vibrio cholerae, read-out: IC50 of QS inhibition in V. cholera. (In general: Reporter assays use an easily measured gene product as a stand-in for the process of interest.)
Test [3] in a line: DPPH radical absorbance assay. It is filed as biochemical. The note with it: 517 nm. The source says: (§3) FIGS. 34A-34B are graphs showing the anti-oxidation effect of tryptophol acetate and tyrosol acetate. Anti-oxidative capacity of the molecules as measured by DPPH (34A) and ORAC (34B) assays. 34A. The results are presented as a percentage of absorbance inhibition (517 nm, the absorbance maximum of DPPH) in the presence of tryptophol acetate (1) alone, tyrosol acetate alone (2) alone, and 1+2 together. 34B. Fluorescence decay of fluorescein induced by AAPH in the absence or presence of 1 and 2. Reaction mixtures containing fluorescein (60 nM) and AAPH (18.75 mM) in 200 μl of phosphate buffer (75 mM, pH 7.4) were incubated at 37° C. for 800 min. Changes in fluorescence intensity emitted by fluorescein were monitored. Results are presented as the net area under the curve (AUC). Each value is the mean±SD of triplicate experiments. ***p<0.0001
The inventors analyzed the anti-oxidation properties of the molecules (FIG. 34) as oxidation processes and generation of reactive oxidative species (ROS) are recognized as contributing to toxic effects in diverse diseases and pathological conditions. FIG. 34 depicts application of a spectrophotometric assay monitoring the visible absorbance of the 2,2-diphenyl-1-picrylhydrazyl (DPPH) radical, which is widely employed for evaluating the anti-oxidation activity of biomolecules. […]
(In general: DPPH is a stable violet radical that fades when it is reduced.)

Test [4] addresses T1, amyloid beta (αβ1-42). Briefly: Surface plasmon resonance, anti-amyloid oligomer antibody chip. It is filed as binding. The note with it: 30 μM αβ1-42, 6-200 μM. The protocol: SPR sensor chip with Oligomer All antibody, an anti-amyloid oligomer conformation-specific antibody was tested with samples containing 30 μM 4(1-42) in the absence or presence of tryptophol acetate in different concentrations.

Test [5] relates to Agrobacterium tumefaciens A136. The experiment in a line: Quorum sensing bioluminescence reporter assay. To be noted: C8 (3-oxo-C8-HSL) autoinducer. Type of test: cell-based.
Description: (§4) Bioluminescence assay was performed with mutant bacteria lacking the nucleotide sequences encoding the relevant autoinducers (AI). Additionally, the bacteria were cloned with bioluminescence reporter plasmids in order to measure their luminescence intensity when quorum sensing gene expression occurs. Ninety-six (96) well microtiter plate assays were used to assess AI activation (agonist) or inhibition (antagonist) of the following bacteria: Agrobacterium tumefaciens, which responds to the C8 autoinducer, and both Vibrio cholerae and Vibrio harveyi, which respond to the (S)-4,5-dihydroxy-2,3-pentanedione (DPD) autoinducer to communicate.
Agrobacterium tumefaciens A136 pCF218 pMV26 culture was grown in Luria-Bertani broth (LB; Miller's broth) supplemented with 25 μg/ml of kanamycin and 4.5 μg/ml of tetracycline at 28-30° C. for 24 h. […] The overnight cultures were diluted to an absorbance density (OD600) of 0.05 by fresh LB medium. […] Luminescence was measured every 20 min for 19 h with continuous shaking at 30° C., using a Microtiter Plate Reader (Varioskan Flash, Thermo). Average luminescence values divided by OD600 values were plotted against the added compound concentration.
The effect of the Kefir biomass crude extract molecules on the following bacteria, A. tumefaciens A136, V. cholerae MM920 and V. harveyi MM30 were measured as described by Brenier et al. (2008). […]
Test [6] in a line: Oxygen radical absorbance capacity (ORAC) assay. It is filed as biochemical. To be noted: AAPH-induced.
Text: as §3
The ORAC experiment measures the quenching of fluorescein emission by peroxyl radicals, and inhibition of the oxidation reaction by molecular species added to the solution.

“Also recorded” adds a separate entry of the source. Like-named read-outs stand apart in the source and are kept apart here.

T1 sequence (P05067 672-713 limits assumed): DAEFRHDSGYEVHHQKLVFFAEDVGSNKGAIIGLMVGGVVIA
Description for Vibrio cholerae MM920: as §4
Agrobacterium tumefaciens A136 pCF218 pMV26 culture was grown in Luria-Bertani broth (LB; Miller's broth) supplemented with 25 μg/ml of kanamycin and 4.5 μg/ml of tetracycline at 28-30° C. for 24 h. Both Vibrio harveyi and Vibrio cholerae strains were grown in LB Broth (Lennox) supplemented with tetracycline at 30° C. for 24 h. The overnight cultures were diluted to an absorbance density (OD600) of 0.05 by fresh LB medium. The probiotic yogurt (e.g., kefir)-extracted molecules were tested at gradient concentration in two types of experiments: competition assay in the absence (activation/agonist) or presence (inhibition/antagonist) of 400 pM 3-oxo-C8-HSL (A. tumefaciens A136 pCF218 pMV26) CAI1 (Vibrio Cholerae MM920) 200 nM DPD (Vibrio harveyi MM30) and the OD600 of 0.05 by fresh LB medium. A clear bottom 96-well microliter plate was prepared with wells containing test compounds serially diluted into the LB medium (triplicates). A total of 100 μl of the diluted cells were added to each well. The control sample contained the bacteria and specific AI molecules without the yogurt extracted molecules. Luminescence was measured every 20 min for 19 h with continuous shaking at 30° C., using a Microtiter Plate Reader (Varioskan Flash, Thermo). Average luminescence values divided by OD600 values were plotted against the added compound concentration.
The effect of the Kefir biomass crude extract molecules on the following bacteria, A. tumefaciens A136, V. cholerae MM920 and V. harveyi MM30 were measured as described by Brenier et al. (2008). The overnight culture was diluted to an absorbance density (OD600) of 0.05 by fresh LB medium. A clear bottom 96-well microliter plate was prepared with wells containing test compounds serially diluted into the LB medium (triplicates). A total of 100 μL of the diluted cells was added to each well. The control sample contained the bacteria and specific autoinducer molecules without the kefir crude extracted molecules. Luminescence was measured every 20 min for 19 h with continuous shaking at 30° C., using a Microtiter Plate Reader (Varioskan Flash, Thermo). Two types of experiments were performed: a competition assay in the presence of 400 pM 3-oxo-C8-HSL (A. tumefaciens A136), CAI-1 (V. Cholerae MM920) 200 nM DPD (V. harveyi MM30) and the other in the absence of these AI's to measure agonistic activity of the crude extracted molecules. Average luminescence values divided by OD600 values were plotted against the added compound concentration.

Take `CC(=O)OCCc1c[nH]c2ccccc12` [Tryptophol acetate]: the “Biofilm formation, P. aeruginosa” value with P. aeruginosa (PA01) was “did not seem to affect biofilm formation; also recorded: No influence”. The “Bacterial cell growth / viability” value in test [1] is recorded as “did not impact cell growth”. In addition, in the test with Peritoneal macrophages, the “Production of IL-6” value is “dramatically reduced” and the “Production of IL-la” value was “dramatically reduced”. For the same compound, the “Biofilm formation, Salmonella” value in the test with Salmonella is given as “significant influence on biofilm formation”. The “Amyloid beta fibrillation (ThT)” value at amyloid beta (αβ1-42) [2] was “effectively reduced amyloid beta fibrillation; also recorded: reduced αβ1-42 fibrillation”. Also, in the test on Vibrio cholerae MM920 (high volume), the IC50 (in general, the point on the concentration scale where inhibition reaches its midpoint) amounted to 12.7 ± 2 µM and the “Effect on QS in V. cholera, high volume” value is given as “inhibits QS”. The “Effect on QS in V. cholera, low volume” value in the test on Vibrio cholerae MM920 is listed as “activates QS”. Moreover, the “Quenching of DPPH absorbance” value in [3] was found to be 10%. The “Inhibition of amyloid beta (SPR)” value on amyloid beta (αβ1-42) [4] was “dose dependent manner”. In test [5], the “Effect on QS in A. tumefaciens” value is listed as “inhibits QS”. Moreover, the “Fluorescence decay of fluorescein” value in test [6] is “around 400 min”.
Turning to `CC(=O)OCCc1ccc(O)cc1` [Tyrosol acetate], in the test on Peritoneal macrophages, the “Production of IL-6” value was “dramatically reduced” and the “Production of IL-la” value is recorded as “dramatically reduced”. Further, in the test with Vibrio cholerae MM920, the IC50 came to 24.4 ± 2.4 µM and the “Effect on QS in V. cholera, low volume” value is recorded as “activates QS”. Besides, the “Effect on QS in V. cholera, high volume” value with Vibrio cholerae MM920 (high volume) is listed as “totally inhibits QS”. In addition, in the test on Vibrio cholerae MM920 (high volume, listed as 180 molecule), the “Effect on QS in V. cholera, high volume” value is recorded as “totally inhibited QS”. In addition, the “Effect on QS in V. cholera, low volume” value with Vibrio cholerae MM920 (listed as 180 molecule) is on record as “activated QS”. Besides, in [3], the “Quenching of DPPH absorbance” value is listed as roughly 3%. Besides, the “Fluorescence decay of fluorescein” value in [6] was roughly 800 min.
